In data set [1] the test system is P-388 mouse leukemia cells. Briefly: P-388 mouse leukemia cell culture cytotoxicity assay. Format: cell-based. The note with it: cultured P-388 leukemia cells. From the text:
The ED50 cytotoxicity concentrations determined for analogs 7a, 9a, 10a, 16a, 16b, 17a and 17b in the P-388 mouse leukemia cell culture assay are given in Table II.

Data set [2] concerns HIV. Description: Anti-HIV assay (NCI FCRF, XTT microculture tetrazolium), infected cells. Format: cell-based. Particulars: for anti-HIV activity: in vitro. The text has this:
(§1) Compounds of formula I were screened for anti-HIV activity at the National Cancer Institute, Frederick Cancer Research Facility, Frederick, Md. (FCRF). The following are the current screening mode operational procedures utilized at FCRF. The protocol consists of 3 areas, (I) preparation of infected cells and distribution to the test plates, (II) preparation of drug dilution plates and distribution to the test plates, and (III) XTT assay procedure. See D. A. Scudiero et al., “A New Simplified Tetrazolium Assay for Cell Growth and Drug Sensitivity in Culture,” Cancer Res., 48, 4827 (1988).
Cells to be infected (a normal lymphoblastoid cell line which expresses CD4) are placed in 50 ml conical centrifuge tubes and treated for 1 hr with 1-2 μg/ml of polybrene at 37° C. The cells are then pelleted for 8 min. ) at 1200 rpm. HIV virus, diluted 1:10 in media (RMP1-1640, 10% human serum or 15% fetal calf serum (FCS), with IL-2, for ATH8 cells only, and antibiotics) is added to provided an MOI of 0.001. Medium alone is added to virus-free control cells. Assuming an infectious virus titer of 10^−4, an MOI of 0.001 represents […] infectious virus particles per 10,000 cells. About 500,000 cells/tube are exposed to 400 μl of the virus dilution. The resultant mixture is incubated for 1 hr at 37° C. in Air-CO2. The infected or uninfected cells are diluted to give 1×10^−4 (with human serum or 2×10^−4 with fetal calf serum) cells/100 μl.
Infected or uninfected cells (100 μl) are distributed to appropriate wells of a 96 well, U-bottom, microtiter plate. Each compound dilution is tested in duplicate with infected cells. Uninfected cells are examined for drug sensitivity in a single well for each dilution of compound. Drug-free control cells, infected and uninfected, are run in triplicate. Wells B2 through G2 served as reagent controls and received medium only. The plates are incubated at 37° C. in Air-CO2 until the drug is added.
Dilution plates (flat bottom 96 well, microtiter plates) are treated overnight with phosphate buffered saline (PBS) or media containing at least 1% FCS or 1% human serum (depending on the medium used in the test), beginning the day before assay. This “blocking” procedure is used to limit the adsorption of drug to the microtiter tray during the dilution process. The wells are filled completely with the blocking solution and allowed to stand at room temperature in a humidified chamber in a hood.
The dilution process is begun by first diluting the test compound 1:20. Blocked, dilution plates are prepared by flicking out the blocking solution and blotting dry on sterile gauze. All wells of each plate are then filled with 225 μl of the appropriate medium using a Cetus liquid handling system. Twenty-five microliters (25 μl) of each 1:20 diluted compound is then manually added to row A of a blocked and filled dilution plate. Four compounds, sufficient to supply two test plates, are added per dilution plate. The four compounds are then serially diluted ten-fold from row A through row H using the Cetus liquid handling system. The starting dilution of each compound in row A is, at this point, 1:200. The dilution plates are kept on ice until needed.
Using a multi-channel pipettor with 6 microtips, 100 μl of each drug dilution is transferred to the test plate which already contains 100 μl of medium plus cells. The final dilution, in the test plate, starts at 1:400 (wells B4 through G4). This dilution (to 0.25% DMSO) prevents the DMSO vehicle from interfering with cell growth. Drug-free, infected or uninfected cells (wells B3 through G3) and reagent controls (B2 through G2) receive medium alone. The final two compounds are then transferred from wells H7 through H12 to a second test plate using the same procedure. Test plates are incubated at 37° C. in Air-CO2 or 7-14 days or until virus controls are lysed as determined macroscopically.
1. […]
(In general: Tetrazolium assays rely on reduction of a dye to a coloured formazan, in cell work by metabolically active cells.)

The test system of data set [3] is normal cells (uninfected). Briefly: Anti-HIV assay (NCI FCRF, XTT), drug sensitivity of uninfected cells. Format: cell-based.
Excerpt: as §1
Cells to be infected (a normal lymphoblastoid cell line which expresses CD4) are placed in 50 ml conical centrifuge tubes and treated for 1 hr with 1-2 μg/ml of polybrene at 37° C. The cells are then pelleted for 8 min. ) at 1200 rpm. HIV virus, diluted 1:10 in media (RMP1-1640, 10% human serum or 15% fetal calf serum (FCS), with IL-2, for ATH8 cells only, and antibiotics) is added to provided an MOI of 0.001. Medium alone is added to virus-free control cells. […]
Using a multi-channel pipettor with 6 microtips, 100 μl of each drug dilution is transferred to the test plate which already contains 100 μl of medium plus cells. […] Test plates are incubated at 37° C. in Air-CO2 or 7-14 days or until virus controls are lysed as determined macroscopically. […]

The subject of data set [4] is H9/HTLV-IIIB. Description: Earlier anti-HIV assay at the Southern Research Institute. Format: cell-based. Particulars: MT-2 cells cultured with H9/HTLV-IIIB. The protocol: An earlier assay carried out at the Southern Research Institute yielded a TI50 of about 200 when MT-2 cells were cultured with H9/HTLV-IIIB.
Data set [5] has as its system HSV-1. Briefly: Activity against HSV-1.
The test system of data set [6] is HIV. Set-up: TI50 against HIV in vitro: unit not given beside the values. Particulars: background; cited from earlier work.
For data set [7], the system named is HSV-2. The note with it: background; cited from earlier work.

The text below walks through data of patent US6534512B1, “Dideoxycarbocyclic nucleosides” (Regents of the University of Minnesota, priority 1988, dated 2003).

Each structure is given as a SMILES string. ≈ marks a conversion by molar mass, not a printed value.

Turning to `OCC1C=CC(n2cnc3c(Cl)ncnc32)C1` (racemic) [Compound 7a, (±)-(1α,4α)-4-(6-chloro-9H-purin-9-yl)-2-cyclopentenyl-carbinol], the “cytotoxicity / activity against P-388 leukemia cells” value in data set [1] was “cytotoxic”. Further, the “anti-HIV activity” value in data set [2] is listed as “active”. On to `Nc1ncnc2c1ncn2C1C=CC(CO)C1` (racemic) [Compound 9a, (±)-(1α,4α)-4-(6-Amino-9H-purin-9-yl)-2-cyclopentenyl-carbinol], for which, in data set [1], the “cytotoxicity / activity against P-388 leukemia cells” value is on record as “cytotoxic”. Also, the “anti-HIV activity” value in data set [2] is listed as “active”. On the same counts, the results for `OCC1C=CC(n2cnc3c(S)ncnc32)C1` (racemic) [Compound 10a, (±)-(1α,4α)-4-(6-Mercapto-9H-purin-9-yl)-2-cyclopentenyl-carbinol] are “cytotoxic” and “active”. Take `Nc1nc(Cl)c2ncn([C@H]3C=C[C@@H](CO)C3)c2n1` (racemic) [Compound 13a, (±)-(1α,4α)-4-(2-Amino-6-chloro-9H-purin-9-yl)-2-cyclopentenyl carbinol]: the “anti-HIV activity” value in data set [2] is reported as “active”.

In the case of `Nc1nc(O)c2ncn(C3C=CC(CO)C3)c2n1` (racemic) [Compound 14a, (±)-(1α,4α)-4-(2-Amino-6-hydroxy-9H-purin-9-yl)-2-cyclopentenyl carbinol], in data set [2] (calculated from FIG. 2 data), the “effective concentration (EC50) with respect to infected cells” value is reported as “about 0.15 μg/ml”. The “anti-HIV activity” value in data set [2] is “strongly inhibits”. Besides, the “TI50, general range” value in data set [2] (varied with the infected cell line used) is on record as 200-400. In addition, the “inhibitory concentration (IC50) with respect to normal cells” value in data set [3] (calculated from FIG. 2 data) was “about 100 μg/ml”. Moreover, the TI50 entry in data set [4] is on record as “about 200”. In addition, the “activity against HSV-1” value in data set [5] was “active”.

In the case of `Nc1nc(N)c2ncn([C@H]3C=C[C@@H](CO)C3)c2n1` (racemic) [Compound 15a, (±)-(1α,4α)-4-(2,6-Diamino-9H-purin-9-yl)-2-cyclopentenyl-carbinol], in data set [2], the “anti-HIV activity” value is on record as “active”.

With `Nc1nc(Cl)c2nnn(C3C=CC(CO)C3)c2n1` (racemic) [Compound 16a, (±)-(1α,4α)-4-(5-Amino-7-chloro-3H-1,2,3-triazolo[4,5d]-pyrimidin-3-yl)-2-cyclopentenyl carbinol], the “cytotoxicity / activity against P-388 leukemia cells” value in data set [1] is recorded as “cytotoxic”.

As to `Nc1nc(O)c2nnn(C3C=CC(CO)C3)c2n1` (racemic) [Compound 17a, (±)-(1α,4α)-4-(5-Amino-7-hydroxy-3H-1,2,3-triazolo[4,5-d]-pyrimidin-3-yl)-2-cyclopentenyl carbinol], the “cytotoxicity / activity against P-388 leukemia cells” value in data set [1] is given as “cytotoxic”. Consider `Nc1nc(N)c2nnn(C3C=CC(CO)C3)c2n1` (racemic) [Compound 18a, (±)-(1α,4α)-4-(5,7-Diamino-3H-1,2,3-triazolo[4,5-d]pyrimidin-3-yl)-2-cyclopentenyl carbinol], for which the “cytotoxicity / activity against P-388 leukemia cells” value in data set [1] is reported as “cytotoxic”. By IC50 is commonly meant the concentration at which inhibition is half-maximal. `Nc1nc(O)c2ncn([C@H]3C=C[C@@H](CO)C3)c2n1` [(−)14a, (1S,4R)-4-(2-Amino-6-hydroxy-9H-Purin-9-yl)-2-cyclopentenyl Carbinol]: the “anti-HIV activity” value in data set [2] is given as “highly active”. Also, the IC50 in data set [3] (Homo sapiens, CCRF-CEM, CEM cells) stood at 189 µg/mL (≈ 764 µM). Consider `Nc1ncnc2c1ncn2[C@@H]1C[C@H](CO)[C@@H](O)[C@@H]1O` [Cyclaridine], for which, in data set [6], the “TI50 against HIV in vitro” value is given as 10. The “activity against HSV-2” value in data set [7] was “highly active”.

Consider `CC(=O)OCC1C=CC(n2cnc3c(O)nc(N)nc32)C1` (stereo not drawn) [acetate ester (R′=Ac) of 14a, (1α,4α)-4-(2-Amino-6-hydroxy-9H-purin-9-yl)-2-cyclopentenyl Acetoxycarbinol], for which the “inhibition of HIV” value in data set [2] (at 6 μg/ml) turned out to be 28%. Also, the “anti-HIV activity” value in data set [2] is reported as “active”. With `Cc1cn(C2CC(CO)C(N=[N+]=[N-])C2)c(=O)[nH]c1=O` (stereo not drawn) [carbocyclic analog of AZT], the “activity against HIV” value in data set [6] is “inactive”.
